Like-named read-outs stand apart in the source and are kept apart here.
What was measured:
[1] = biological target: T1, A1 receptors (Rattus norvegicus, UniProt P25099); experiment: prevention of R-PIA-induced inhibition of adenylate cyclase in rat fat cell membranes (C); type: biochemical; set-up: from tissue
T1 sequence (P25099 1-326): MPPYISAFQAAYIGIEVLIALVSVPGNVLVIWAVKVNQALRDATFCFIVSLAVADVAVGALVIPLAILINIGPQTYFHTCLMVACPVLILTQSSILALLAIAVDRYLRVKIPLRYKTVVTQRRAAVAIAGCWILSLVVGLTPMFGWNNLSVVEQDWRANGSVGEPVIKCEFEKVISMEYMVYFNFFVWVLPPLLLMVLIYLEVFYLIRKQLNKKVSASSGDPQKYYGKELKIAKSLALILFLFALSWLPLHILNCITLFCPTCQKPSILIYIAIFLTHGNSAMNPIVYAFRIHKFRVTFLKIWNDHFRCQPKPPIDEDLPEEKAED
Description: (§1) For activity at A1 receptors, compounds were tested as inhibitors of the binding of N^6 -[…]-[3H]-Phenylisopropyladenosine in rat brain membranes and for their ability to prevent R-PIA-induced inhibition of adenylate cyclase in rat fat cell membranes.
(C) Rat Fat Cell Membranes

[2] = biological target: T1, A1 receptors; experiment: inhibition of binding of [3H]-phenylisopropyladenosine in rat brain membranes (D); set-up: Rat Brain Membranes; from tissue; host or cells: rat brain (membranes)
Description: as §1
(D) Rat Brain Membranes

[3] = test system: A2 adenosine receptors; experiment: antagonism of adenosine agonists: decrease in contractile tone of guinea pig taenia caecum (A2); details: for selectivity for A1 adenosine receptors (functional tissues): atrium (A1) vs taenia caecum (A2); for antagonism of the effects of adenosine agonists in relaxing the taenia caecum: modified Schild plots; for sensitization of the tissue (larger agonist response): taenia caecum, high concentrations of the compound
Description: Taenia from the guinea pig caecum were cut into lengths of 1.5-2 cm. The tissues were suspended in a 20 ml organ bath containing de Jalon's solution that was gassed with 95% O2 +5% CO2 and maintained at 31° C. […] The contractile response was measured isotonically. […] The ability of the compounds to antagonize the effects of agonists was analyzed using modified Schild plots.

[4] = biological target: T2, A2 receptors (Rattus norvegicus, UniProt P30543); experiment: antagonism of NECA-stimulated adenylate cyclase in rat PC12 membranes (B); type: biochemical
T2 construct: Rat PC12 Membranes; endogenous in cells; host or cells: PC12

[5] = biological target: T3, A1 adenosine receptors (Cavia porcellus, UniProt P47745); experiment: antagonism of adenosine agonists: reduction in force of contraction of guinea pig atrium (A1); details: for basal force of contraction in the atria / competitive antagonism at adenosine receptors in the atria: guinea pig atria
T3 construct: The left atria from male guinea pigs were isolated; from tissue; host or cells: guinea pig left atrium
T3 sequence (P47745 1-326): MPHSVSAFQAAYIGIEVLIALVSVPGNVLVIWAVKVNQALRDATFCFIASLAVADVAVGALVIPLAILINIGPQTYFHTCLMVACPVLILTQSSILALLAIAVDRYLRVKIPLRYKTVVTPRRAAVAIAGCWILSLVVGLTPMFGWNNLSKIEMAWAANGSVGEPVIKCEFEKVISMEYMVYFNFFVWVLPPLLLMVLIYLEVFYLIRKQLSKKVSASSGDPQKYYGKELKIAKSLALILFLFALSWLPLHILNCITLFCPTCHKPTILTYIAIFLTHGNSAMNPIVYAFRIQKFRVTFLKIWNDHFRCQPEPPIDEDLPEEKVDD
Description: The left atria from male guinea pigs were isolated, suspended between two punctate electrodes, and placed in a 20 ml organ bath that contained Krebs-[…] solution that was continuously gassed with 95% O2 +5% CO2 and maintained at 31° C. The resting tension was one gram. The atria were stimulated electrically at 1 Hz, 1 msec duration pulses at supramaximal voltage. The force of contraction was recorded isometrically. The ability of the compounds to antagonize the effects of agonists was analyzed using modified Schild plots.

[6] = biological target: T4, A2 receptors (Homo sapiens, UniProt P29274); experiment: antagonism of NECA-stimulated adenylate cyclase in human platelet membranes (A); type: biochemical
T4 construct: Human Platelet Membranes; from tissue; host or cells: human platelets (membranes)

[7] = biological target: T5, rat cortical A1 receptors (Rattus norvegicus, UniProt P25099); experiment: displacement of [3H]-CHA from rat cortical A1 receptors; type: binding
T5 construct: rat cortical membranes were the receptor source; from tissue; host or cells: rat cerebral cortex (male Sprague Dawley) membranes
T5 sequence (P25099 1-326): T1 sequence (P25099 1-326)
Description: Varying concentrations of test compounds were incubated with the appropriate radioligand and membrane source for 1 hr at room temperature.
Assays were terminated by filtration over Whatman GF/B filters that had been pre-soaked with 0.1% polyethyleneimine using a 24 port Brandell cell havester. The filters were washed three times with 3 ml of ice cold buffer and transfered to plastic scintillation vials to which 4 ml of Beckman Ready protein scintillation cocktail was added. The tubes were shaken and counted in a Beckman 3801 scintillation counter that converted cpm to dpm.
Data were analyzed by utilizing the Ligand, commercial computer program (Munson and Rodbard, 1980).
Male Sprague Dawley rats were killed by decapitation and the brains removed. The cerebral cortices were homogenized in 50 mm Tris; 2mm MgCl2 (pH 7.4), and centrifuged at 40,000×g for 10 minutes. […] The homogenate was centrifuged, washed once, resuspended to a protein concentration of 5-10 mg/ml and frozen at -70° C. until use.

[8] = biological target: T1, A1 receptors; experiment: in vivo test on heart rate / ECG of anesthetized rats; details: high doses
Description: Rats were anesthetized with urethan and blood pressure was monitored via a carotid cannula. Drug injections were made intravenously through a jugular cannula. Blood pressure, EGC, and heart rate were recorded on a Grass polygraph.

[9] = (C) Rat Fat Cell Membranes, A1 Effects, read-out: KB vs PIA INHIBITION (Adenylate Cyclase)
[10] = (D) Rat Brain Membranes, A1 Effects, read-out: Ki vs [^3 H] PI (Binding)
[11] = (B) Rat PC12 Membranes, A2 Effects
[12] = guinea pig atrium, modified Schild plots
[13] = (A) Human Platelet Membranes, A2 Effects
[14] = [3H]-CHA, rat cortical A1 receptors, read-out: Rat Cortical Binding Constant Ki

T4 sequence (P29274 whole entry): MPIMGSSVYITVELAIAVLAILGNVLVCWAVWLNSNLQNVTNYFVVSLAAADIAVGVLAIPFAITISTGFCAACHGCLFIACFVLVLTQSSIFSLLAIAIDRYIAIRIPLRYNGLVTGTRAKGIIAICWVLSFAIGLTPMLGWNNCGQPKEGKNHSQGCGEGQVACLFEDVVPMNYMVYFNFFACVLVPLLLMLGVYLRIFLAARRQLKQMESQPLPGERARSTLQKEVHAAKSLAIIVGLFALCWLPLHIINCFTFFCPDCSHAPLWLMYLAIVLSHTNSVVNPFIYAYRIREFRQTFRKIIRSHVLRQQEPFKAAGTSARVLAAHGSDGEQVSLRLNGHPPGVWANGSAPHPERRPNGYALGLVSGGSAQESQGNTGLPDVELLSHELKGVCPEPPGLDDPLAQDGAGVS
T2 sequence (P30543 whole entry): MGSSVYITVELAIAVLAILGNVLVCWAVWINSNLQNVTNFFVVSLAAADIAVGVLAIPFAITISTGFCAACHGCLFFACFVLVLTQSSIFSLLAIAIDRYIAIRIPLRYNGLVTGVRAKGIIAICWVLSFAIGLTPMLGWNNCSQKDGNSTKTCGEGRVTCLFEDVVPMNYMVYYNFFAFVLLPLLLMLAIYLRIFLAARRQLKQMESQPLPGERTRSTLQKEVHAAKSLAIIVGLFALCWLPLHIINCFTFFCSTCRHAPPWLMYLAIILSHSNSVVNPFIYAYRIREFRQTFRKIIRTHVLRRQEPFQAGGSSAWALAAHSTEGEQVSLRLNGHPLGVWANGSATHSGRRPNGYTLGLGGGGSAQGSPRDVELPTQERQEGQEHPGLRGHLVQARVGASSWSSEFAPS

CCC(CC)Nc1ncnc2c1ncn2C [N^6-3-Pentyl-9-MA, N^6-3-Pentyl-9-Methyladenine]
Kb [1, 9]: 7.6 µM
Ki [2, 10]: 3.3 µM
selectivity for A1 adenosine receptors (functional tissues) [3]: selective for A1 adenosine receptors
antagonism of the effects of adenosine agonists in relaxing the taenia caecum [3]: did not competitively antagonize the effects of adenosine agonists in relaxing the taenia caecum
sensitization of the tissue (larger agonist response) [3]: some sensitization of the tissue
Kb [4, 11]: 53 µM
basal force of contraction in the atria [5]: increases in basal force of contraction in the atria
competitive antagonism at adenosine receptors in the atria [5]: competitive antagonists at adenosine receptors in the atria
affinity constant pKB [5, 12]: 5.4 ± 0.14
Kb [6, 13]: 11 µM

Cn1cnc2c(NC3CCCC3)ncnc21 [compound 0840, N^6 -Cyclopentyl-9-Methyl Adenine]
Kb [1, 9]: 1.3 µM
potency relative to 9-methyladenine at A1 receptors ([2]; A1 receptors, vs 9-methyladenine): at least 100 fold
selectivity for A1 adenosine receptors (functional tissues) [3]: selective for A1 adenosine receptors
antagonism of the effects of adenosine agonists in relaxing the taenia caecum [3]: did not competitively antagonize the effects of adenosine agonists in relaxing the taenia caecum
sensitization of the tissue (larger agonist response) [3]: some sensitization of the tissue
Kb [4, 11]: 25 µM
competitive antagonism at adenosine receptors in the atria [5]: competitive antagonists at adenosine receptors in the atria
affinity constant pKB [5, 12]: 6.17 ± 0.11
Kb [6, 13]: 4.9 µM
potency relative to 9-methyladenine at A2 receptors ([6]; human platelet assay, vs 9-methyladenine): 5 fold
Ki [7, 14]: 0.375 µM

CCC(Cc1cccs1)Nc1ncnc2c1ncn2C (stereo not drawn) [N^6-1-(2-Thienyl)-2-butyl)-9-MA, N^6-1-(2-Thienyl)-2-butyl-9-MA]
basal force of contraction in the atria [5]: increases in basal force of contraction in the atria
competitive antagonism at adenosine receptors in the atria [5]: competitive antagonists at adenosine receptors in the atria
Kb ([5]; guinea pig atrium, modified Schild plots, read-out: affinity constant pKB (converted)): 4.37 µM

Cn1cnc2c(NC3CCCCC3)ncnc21 [N^6 -Cyclohexyl-9-MA]
Kb [1, 9]: 0.65 µM
Kb [4, 11]: 21 µM
Kb [6, 13]: 7.4 µM

Cn1cnc2c(Nc3ccccc3F)ncnc21 [N^6-2-Fluorophenyl-9-MA, N^6-2-Fluorophenyl-9-MA]
Kb [1, 9]: 17 µM
Ki [2, 10]: 8.5 µM
Kb [4, 11]: 29 µM
Kb [6, 13]: 11 µM

Nc1ncnc2c1ncn2[C@@H]1O[C@H](CO)[C@@H](O)[C@H]1O [Adenosine, reference compound]
heart block at high doses [8]: causes heart block

Cn1cnc2c(NCCc3ccsc3)ncnc21 [N^6-2-(3-Thienylethyl)-9-MA]
Kb [1, 9]: 24 µM
Ki [2, 10]: 20 µM
Kb [4, 11]: 25 µM
Kb [6, 13]: 14 µM

Cn1cnc2c(NCCc3ccccc3)ncnc21 [compound 0990, N^6-2-(phenethyl)9-MA]
Kb [1, 9]: > 300 µM
Ki [2, 10]: > 100 µM
Kb [4, 11]: 120 µM
Kb [6, 13]: 170 µM
Ki [7, 14]: > 10 µM

CNc1ncnc2c1ncn2C [N^6 -Methyl-9-MA]
Kb [1]: 220 µM
Ki [2]: > 100 µM
Kb [4]: 130 µM
Kb [6]: 150 µM

COc1cc(CCNc2ncnc3c2ncn3C)cc(OC)c1OC [compound 1002, N^6-2-(3,4,5-Trimethoxyphenyl) ethyl-9-MA]
Kb [1, 9]: 122 µM
Ki [2, 10]: > 100 µM
Kb [4, 11]: 40 µM
Kb [6, 13]: 23 µM
Ki [7, 14]: > 10 µM

Cn1cnc2c(NCCc3cccnc3)ncnc21 [N^6-2-(3-Pyridylethyl)-9-MA]
Kb [1, 9]: 96 µM
Ki [2, 10]: 41 µM
Kb [4, 11]: 117 µM
Kb [6, 13]: 92 µM

Cn1cnc2c(NCc3ccccc3)ncnc21 [N^6-2-Benzyl-9-MA, N^6 -Benzyl-9-MA]
Kb [1, 9]: 49 µM
Ki [2, 10]: 17 µM
Kb [4, 11]: 100 µM
Kb [6, 13]: 57 µM

C[C@@H](Cc1ccccc1)Nc1ncnc2c1ncn2C [compound 0986, N^6 -S-1-phenyl-2-propyl-9-MA]
Ki [2]: 10 µM
Kb [4, 11]: 74 µM
Kb [6]: 23 µM
Ki [7]: > 10 µM

C[C@H](Cc1ccccc1)Nc1ncnc2c1ncn2C [N^6 R-1-Phenyl-2-propyl-9-MA, N^6 -R-1-Phenyl-2-propyl-9-MA]
Kb [1]: 7.2 µM
Ki [2]: 2.5 µM
Kb [4, 11]: 25 µM
Kb [6, 13]: 13 µM

Cn1cnc2c(N[C@@H]3C[C@H]4CC[C@@H]3C4)ncnc21 (relative stereo) [compound 0978, N^6-(exo-2-norbornyl)-9-MA]
Ki [7, 14]: 0.43 µM

Cc1cc(Cl)ccc1Nc1ncnc2c1ncn2C [compound 0988, N6(4-chloro-2-methylphenyl)-9-MA]
Ki [7, 14]: > 10 µM

N^6 -Methylcyclopentyl-9-MA [N^6 -Methylcylopentyl-9-MA]
Kb [1, 9]: 9 µM
Ki [2, 10]: 2.5 µM
Kb ([4]; read-out: KB vs NECA Stimulation (Adenylate Cyclase), (B) Rat PC12 Membranes, A2 Effects): 56 µM
Kb ([6]; read-out: KB vs NECA Stimulation (Adenylate Cyclase), (A) Human Platelet Membranes, A2 Effects): 45 µM

Cn1cnc2c(N)ncnc21 [9-Methyladenine (9-MA), 9-Methyladenine, reference compound]
Kb [1]: 112 µM
Ki [2]: 106 µM
Kb [4]: 24 µM

Cn1cnc2c(Nc3ccccc3)ncnc21 [N^6 Phenyl-9-MA, N^6 -Phenyl-9-MA]
Kb [1, 9]: 10 µM
Ki [2, 10]: 25 µM
Kb [4, 11]: 107 µM
Kb [6, 13]: 21 µM

Cn1cnc2c(NC3CCC3)ncnc21 [N^6-cyclobutyl-0-MA, N^6 -Cyclobutyl-9-Methyl Adenine]
Kb [1, 9]: 0.89 µM
Ki [2, 10]: 1.2 µM
Kb [4, 11]: 23 µM
Kb [6, 13]: 5.5 µM

Cn1cnc2c(NCC(c3ccccc3)c3ccccc3)ncnc21 [compound 0966, N^6-2,2-diphenylethyl-9-MA]
Ki [7, 14]: > 10 µM
